One assay concerns BXPC-3 cells. The assay can be described thus: Stimulation of AKT phosphorylation in BXPC-3 cells (pAKT ELISA). The following applies: 10 min stimulation, doses in M (Table 4), 6x-Histidine-tagged fusion proteins. The format is cell-based. How it is done:
Fusion proteins comprising IGF-1 and a cartilage matrix binding domain were prepared as described above. Six fusion proteins were prepared: GF-Fus1 (6x-Histidine-tagged), GF-Fus2(6x-Histidine-tagged), GF-Fus3 (6x-Histidine-tagged), GF-Fus4 (6x-Histidine-tagged), GF-Fus5 (6x-Histidine-tagged), and GF-Fus6 (6x-Histidine-tagged). In order to ensure that the growth factor portion of the fusion protein was active in the fusion proteins, each construct was tested for its ability to stimulate AKT phosphorylation. Wild-type IGF-1 (wtIGF) was included as a control. Bovine chondrocytes were stimulated with a range of doses of each fusion protein, and pAKT levels were measured by ELISA.
For ligand stimulation, chondrocytes were seeded at 200,000 cells/well into 96-well tissue culture plates with 100 μL of chondrocyte culture medium with fetal bovine serum (10% v/v, Life Technologies Cat#16140071). Alternatively, BXPC-3 cells, a pancreatic adenocarcinoma cell line (ATCC® CRL-1687™), were seeded at 30,000 cells/well into 96-well tissue culture plates with 100 μL of BXPC-3 medium (RPMI-1640, e.g., ATCC® 30-2001™), with L-glutamine (2 mM), Penicillin-Streptomycin (1×, Gibco® 15140-122), Fetal Bovine Serum (10% v/v, Life Technologies Cat#16140071)). After 24 hrs, both chondrocytes and BXPC-3 cells were rinsed with 100 μL of sterile PBS (pH=7.4) per well and 100 μl of chondrocyte or BXPC-3 culture medium (without fetal bovine serum) was added to the corresponding cell type. After an additional 24 hrs, cells were stimulated with the doses of fusion proteins set forth in Table 4 by adding 25 μL of fusion protein at a concentration 5 times greater than the concentration listed in Table 4 to the 100 μL of medium already in the wells. After 10 min of stimulation, fusion protein was removed and wells were rinsed in ice cold PBS (pH=7.4). 50 μL/well of cell extraction buffer (Invitrogen cat# FNN0011) was added and incubated with shaking at 4° C. for 30 minutes. Lysates were then frozen at −80° C.
Corning high binding 384 well black ELISA plates (cat#3577) are coated with 30 μL of capture antibody at 4 μg/mL (anti-AKT1 total capture antibody, Upstate, Cat#05-591MG) in PBS (pH=7.4) for 16 hours at room temperature, washed and blocked with […] 2% bovine serum albumin (Sigma Cat# A3294) in PBS (pH=7.4) for 1 hour at room temperature. 20 μL of thawed lysates or recombinant pAKT standards (ten 2-fold serial dilutions of 400 ng recombinant human AKT, active (Upstate, Cat#14-276) in PBS (pH=7.4) containing 50% v/v Cell extraction buffer (Invitrogen Cat#FNN0011), 1% bovine serum albumin (Sigma Cat# A3294), 0.05% Tween20) are applied to the coated plate and incubated for 2 hours at room temperature. After washing 3 times with 100 μL/well of 0.05% Tween-20/PBS (pH=7.4) bound phospho-AKT is detected using Phospho-AKT (Ser473)(587F11)-biotinylated (Cell Signaling, Cat#5102), streptavidin-HRP (R&D Systems Cat# DY998, Part #890803), SuperSignal ELISA PicoChemiluminescent Substrate (Thermo Scientific Cat#37069), using a luminometer to detect light emissions at 425 nm.
For orientation: In an ELISA, binding on a coated surface is turned into a signal by an enzyme label.

The subject of assay [1] is human ankle and knee cartilage explants. Put plainly: In vitro joint disease model, explanted human cartilage: ^35S-sulfate incorporation. Format: cell-based. The following applies: for sulfated matrix biosynthesis in the absence of cytokines, 16 day combination with Dexamethasone: FIG. 14E black bars; for ^35S-sulfate incorporation, 16 D treatment: protein 16 days in combination with Anti-Infl-1, cytokines, versus Disease control. The procedure: Human cartilage explants are harvested from the knee and ankle of human cadaver donors within 24 hours postmortem. Joints are aseptically dissected by a pathologist to assess gross cartilage morphology by the modified Collins scale (Kuettner, et al., Cartilage degeneration in different human joints. Osteoarthritis Cartilage. 2005; 13(2):93-103) and only grade 0 or 1 joints are used. Full-thickness knee cartilage surfaces are harvested from the femoral-patellar groove and chondyles using a scalpel. Full thickness ankle cartilage is harvested from the dome of talus, proximal area under dome of talus, head of the talus, tibial malleolus and fibular malleolus using a scalpel. Using a 4 mm diameter disposable biopsy punch, full thickness cartilage cores are punched from the cartilage surfaces keeping the superficial zone intact and used as explants in culture.
Explants are cultured in 96-well plates in 300 μL of low glucose DMEM (1× Gibco 11885-084) with added Penicillin-Streptomycin (1×, Gibco 15140-122), ascorbic acid (20 μg/mL, Sigma A4403), proline (400 μM, Sigma P5607-256), non-essential amino acids (1×, Sigma M7145), and HEPES ([…], Gibco 15630-080). Explants from 2-3 donors (4-6 explants per donor) are used for each treatment condition for a total explant number of 12-18 per condition. Donor ages were: 67 year male ankle, 71 year male ankle, 76 year female ankle, 59 year male knee, 34 year male knee, and 63 year female knee. Medium is changed every 2 days. On day 14, the medium is supplemented with 5 μCi/mL of ^35S-sodium sulfate (Perkin Elmer NEX041H005MC, 5 mCi).
Time points are taken at day 16 as follows. Explant tissue is washed four times for 30 min each (2 hr total) in 1 mM unlabeled sodium sulfate in PBS. Each explant is weighed wet and frozen at −20° C. until digestion. Tissue digestion is performed with Proteinase K (Roche cat #3115879001) and each explant is digested in 1 mL 500 μg/mL Proteinase K in 50 mM Tris-HCL, 1 mM calcium chloride pH=8.0 buffer at 60° C. overnight. Measurement of sGAG content and DNA content is performed using standard assay methods such as those described in Hoemann, 2004, Methods in Molecular Medicine: Cartilage and Osteoarthritis. Totowa, N.J.: Humana Press Inc.; p. 127-52. ^35S-sulfate content of the digested cartilage explants is quantified by mixing 20 μL of digest with 250 μL of scintillation fluid (Perkin Elmer cat #1200-439) and counting with A WALLAC 1450 MICROBETA TRILUX scintillation counter.
Treatments were given at the following concentrations: GF-Fus1 13.3 nM=135 ng/mL; and GF-Fus3 13.3 nM=181 ng/mL; Dexamethasone 100 nM=39.2 ng/mL. Growth factor and steroid treatment conditions included the cytokines TNF-alpha (R&D Systems, Cat#210-TA, 25 ng/mL), IL-6 (R&D Systems, Cat#206-IL, 50 ng/mL), and IL-6R alpha (R&D Systems, Cat#227-SR, 250 ng/mL) which were supplied in each medium change. GF-Fus1 and GF-Fus3 were added to fresh medium for either the first 8 days (8 D) or the entire 16 day culture duration (16 D), whereas Dexamethasone was added for the entire 16 days in all cases. Controls were either no cytokines (Healthy) or with cytokines alone (Disease). The outcomes measured from the cartilage explants at day 16 were ^35S-sulfate incorporation, DNA, and sGAG content, and sGAG released to media for all media changes.

As for “GF-Fus1: IGF-1 variant polypeptide Long [R^3]-IGF-1, no fused binding domain; used 6x-Histidine-tagged as control [reference compound]”, in the assay on BXPC-3 cells, the “logEC50 Mean” value is listed as −8.605. In addition, the “sulfated matrix biosynthesis in the absence of cytokines, 16 day combination with Dexamethasone” value in assay [1] (human knee chondyle cartilage) is reported as “restores sulfated matrix biosynthesis to a level at or above healthy controls”. Further, the “^35S-sulfate incorporation, 16 D treatment” value in assay [1] (FIGS. 14A-D) was “stimulated”.
For “GF-Fus3: C-terminal fusion IGF-1(LR3)-PRELP heparin binding domain”, the “logEC50 Mean” value with BXPC-3 cells is recorded as −9.231. Also, in assay [1] (13.3 nM, 16 days with cytokines, with and without Dexamethasone, versus Disease), the “synthesis of new sulfated cartilage matrix (^35S-sulfate incorporation)” value is given as “upregulates”. The “sulfated matrix biosynthesis in the absence of cytokines, 16 day combination with Dexamethasone” value in assay [1] (human knee chondyle cartilage) is recorded as “restores sulfated matrix biosynthesis to a level at or above healthy controls”. Also, in assay [1] (FIGS. 14A-D), the “^35S-sulfate incorporation, 16 D treatment” value is recorded as “stimulated”. For the same substance, the “^35S-sulfate incorporation, 8 D treatment” value in assay [1] (protein first 8 days only, Anti-Infl-1 16 days, cytokines, measured final 48 hours of 16 day culture, FIGS. 14A-D) is on record as “equivalent or superior potency to the continuously delivered proteins”. The “sulfated matrix biosynthesis in the absence of cytokines, protein removed for the final 8 days” value in assay [1] (with Dexamethasone 16 days, human knee chondyle cartilage, FIG. 14E white bars) was “sustains sulfated matrix biosynthesis at the level equivalent to continuous 16 day treatment”.
For the substance “GF-Fus5: IGF-1(LR3) fused to CNA35 CB domain”, the “logEC50 Mean” value with BXPC-3 cells is −8.969.
Still for that read-out and setting: to “GF-Fus6: IGF-1(LR3) fused to CNA344 CB domain” belongs −8.832; to “wtIGF: Wild-type IGF-1 (R&D systems 291-G1), control [reference compound]”, −9.081.

For the origin of these results see patent US20170327556A1, “CARTILAGE-BINDING FUSION PROTEINS” (Merrimack Pharmaceuticals, Inc., priority 2013, published 2017).
